Like-named read-outs stand apart in the source and are kept apart here.
How the values were obtained:
[1] = molecular target: biotinylated r(G4C2)8 RNA and hnRNP H1-His6; assay: TR-FRET hnRNP H binding assay
Summary of the method: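 Biotinylated r(G4C2)8 RNA (80 nM), heat-folded at 95 °C then slowly cooled, was preincubated 15 min with compound before hnRNP H1-His6 (75 nM) was added. After 15 min, streptavidin-XL665 (40 nM) and anti-His6-Tb (0.44 ng/μL) were added and TR-FRET was read after 1 h. IC50 was obtained by curve fitting.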

[2] = system: RAN translation of (G4C2)66-No ATG-GFP in HEK293T cells; assay: Cell-based assay of RAN translation inhibition (GFP/mCherry reporter); conditions: Homo sapiens, HEK-293T, 24 h, read-out: RANT IC25
[3] = Table F, HEK293T, 24 h treatment
[4] = Table D, HEK293T, 24 h treatment

Ki ([1]; Table F) [nM] | Ki ([1]; Table D) [nM] | Structure (SMILES) | IC25 [2, 3] [nM] | IC25 [2] [nM] | IC25 [2, 4] [nM]
1200 | – | Cc1c2ccncc2cc2c3cc(OC[C@H](C)N(C)C)ccc3n(C)c12 [Compound 230, (S)-1-((5,6-dimethyl-6H-pyrido[4,3-b]carbazol-9-yl)oxy)-N,N-dimethylpropan-2-amine] | 4300 | – | –
2000 | – | Cc1c2ccncc2cc2c3cccc(OCC4=NCCN4)c3n(C)c12 [Compound 232, 7-((4,5-dihydro-1H-imidazol-2-yl)methoxy)-5,6-dimethyl-6H-pyrido[4,3-b]carbazole] | > 5000 | – | –
800 | – | Cn1c2ccc(OCC3=NCCN3)cc2c2cc3cnccc3cc21 [Compound 234, 9-((4,5-dihydro-1H-imidazol-2-yl)methoxy)-6-methyl-6H-pyrido[4,3-b]carbazole] | 650 | – | –
500 | – | Cc1c2ccncc2cc2c3cc(OC[C@@H](C)N(C)C)ccc3n(C)c12 [Compound 242, (R)-1-((5,6-dimethyl-6H-pyrido[4,3-b]carbazol-9-yl)oxy)-N,N-dimethylpropan-2-amine] | 1500 | – | –
600 | – | Cc1c2ccncc2cc2c3cc(N4CCN(C)CC4)ccc3n(C)c12 [Compound 243, 5,6-dimethyl-9-(4-methylpiperazin-1-yl)-6H-pyrido[4,3-b]carbazole] | 1200 | – | –
400 | – | Cc1c2ccncc2cc2c3cc(N4CCNCC4)ccc3n(C)c12 [Compound 244, 5,6-dimethyl-9-(piperazin-1-yl)-6H-pyrido[4,3-b]carbazole] | 2400 | – | –
800 | – | Cn1c2ccc(OCC(=N)N)cc2c2cc3cnccc3cc21 [Compound 245, 2-((6-methyl-6H-pyrido[4,3-b]carbazol-9-yl)oxy)acetimidamide] | 1700 | – | –
1600 | – | Cc1c2ccncc2cc2c3cc(N4CCNC5(CC5)C4)ccc3n(C)c12 [Compound 246, 5,6-dimethyl-9-(4,7-diazaspiro[2.5]octan-7-yl)-6H-pyrido[4,3-b]carbazole] | > 5000 | – | –
> 200000 | – | Cc1c2ccncc2cc2c3cc(OCCN4CCOCC4)ccc3n(CC(C)(C)C)c12 [Compound 247, 4-(2-((5-methyl-6-neopentyl-6H-pyrido[4,3-b]carbazol-9-yl)oxy)ethyl)morpholine] | > 5000 | – | –
22000 | – | Cc1c2ccncc2cc2c3cc(OCC4=NCCN4)ccc3n(CCC(C)C)c12 [Compound 249, 9-(4,5-dihydro-1H-imidazol-2-ylmethoxy)-6-isopentyl-5-methyl-pyrido[4,3-b]carbazole] | > 5000 | – | –
11000 | – | Cc1c2ccncc2cc2c1[nH]c1ccc(OCCN3CCOCC3)cc12 [Compound 250, 4-(2-((5-methyl-6H-pyrido[4,3-b]carbazol-9-yl)oxy)ethyl)morpholine] | > 5000 | – | –
> 200000 | – | Cc1c2ccncc2cc2c3cc(OCC4=NCCN4)ccc3n(CC(C)(C)C)c12 [Compound 252, 9-((4,5-dihydro-1H-imidazol-2-yl)methoxy)-5-methyl-6-neopentyl-6H-pyrido[4,3-b]carbazole] | > 5000 | – | –
14000 | – | Cc1c2ccnc(C(=O)N[C@H](C)CN(C)C)c2cc2c3cccc(OCCCN4CCN(C)CC4)c3n(C)c12 [Compound 253, (R)—N-(1-(dimethylamino)propan-2-yl)-5,6-dimethyl-7-(3-(4-methylpiperazin-1-yl)propoxy)-6H-pyrido[4,3-b]carbazole-1-carboxamide] | > 5000 | – | –
1800 | – | Cc1c2ccncc2cc2c3cc(OCC4=NCCN4)cc(F)c3n(C)c12 [Compound 254, 9-((4,5-dihydro-1H-imidazol-2-yl)methoxy)-7-fluoro-5,6-dimethyl-6H-pyrido[4,3-b]carbazole] | > 5000 | – | –
8800 | – | CCn1c2ccc(OCC3=NCCN3)cc2c2cc3cnccc3cc21 [Compound 255, 9-(4,5-dihydro-1H-imidazol-2-ylmethoxy)-6-ethyl-pyrido[4,3-b]carbazole] | 1250 | – | –
42000 | – | CC(C)n1c2ccc(OCC3=NCCN3)cc2c2cc3cnccc3cc21 [Compound 256, 9-(4,5-dihydro-1H-imidazol-2-ylmethoxy)-6-isopropyl-pyrido[4,3-b]carbazole] | > 5000 | – | –
5700 | – | Cc1c2ccncc2cc2c1[nH]c1ccc(OCC3=NCCN3)cc12 [Compound 257, 9-((4,5-dihydro-1H-imidazol-2-yl)methoxy)-5-methyl-6H-pyrido[4,3-b]carbazole] | 2700 | – | –
– | 39000 | COc1ccc2c(c1)c1cc3c(C(=O)N[C@H](C)CN(C)C)nccc3c(C)c1n2C [Example 25, (R)—N-(1-(dimethylamino)propan-2-yl)-9-methoxy-5,6-dimethyl-6H-pyrido[4,3-b]carbazole-1-carboxamide] | – | – | 270
– | 5900 | Cc1c2ccnc(C(=O)N[C@H](C)CN(C)C)c2cc2c3cc(OCCCN4CCN(C)CC4)ccc3n(C)c12 [Example 26, (R)—N-(1-(dimethylamino)propan-2-yl)-5,6-dimethyl-9-(3-(4-methylpiperazin-1-yl)propoxy)-6H-pyrido[4,3-b]carbazole-1-carboxamide] | – | – | 570
– | 9100 | COc1ccc2c(c1)c1cc3c(C(=O)N[C@@H](C)CN(C)C)nccc3c(C)c1n2C [Example 27, (S)—N-(1-(dimethylamino)propan-2-yl)-9-methoxy-5,6-dimethyl-6H-pyrido[4,3-b]carbazole-1-carboxamide] | – | – | 1000
– | 8100 | COc1ccc2c(c1)c1cc3c(C(=O)NCCN(C)C)nccc3c(C)c1n2C [Example 28, N-[2-(dimethylamino)ethyl]-9-methoxy-5,6-dimethyl-pyrido[4,3-b]carbazole-1-carboxamide] | – | – | 640
– | 17000 | COc1ccc2c(c1)c1cc3c(C(=O)NCCCN(C)C)nccc3c(C)c1n2C [Example 29, N-(3-(dimethylamino)propyl)-9-methoxy-5,6-dimethyl-6H-pyrido[4,3-b]carbazole-1-carboxamide] | – | – | 740
– | 2500 | Cc1c2ccncc2cc2c3cc(OCCN4CCN(C)CC4)ccc3n(C)c12 [Example 30, 5,6-dimethyl-9-(2-(4-methylpiperazin-1-yl)ethoxy)-6H-pyrido[4,3-b]carbazole] | – | – | 2200
– | 9500 | Cc1c2ccncc2cc2c3cc(OCCN)ccc3n(C)c12 [Example 32, 2-((5,6-dimethyl-6H-pyrido[4,3-b]carbazol-9-yl)oxy)ethanamine] | – | – | 1400
– | 6100 | CNC(=O)COc1ccc2c(c1)c1cc3cnccc3c(C)c1n2C [Example 34, 2-((5,6-dimethyl-6H-pyrido[4,3-b]carbazol-9-yl)oxy)-N-methylacetamide] | – | – | 1200
– | 38000 | Cc1c2ccncc2cc2c3cc(OCc4nccn4C)ccc3n(C)c12 [Example 35, 5,6-dimethyl-9-((1-methyl-1H-imidazol-2-yl)methoxy)-6H-pyrido[4,3-b]carbazole] | – | – | > 5000
– | 3900 | Cc1c2ccncc2cc2c3cc(OC[C@H]4CCCN4C)ccc3n(C)c12 [Example 36, (R)-5,6-dimethyl-9-((1-methylpyrrolidin-2-yl)methoxy)-6H-pyrido[4,3-b]carbazole] | – | – | > 5000
– | 840 | Cc1c2ccncc2cc2c3cc(OC[C@@H]4CCCN4C)ccc3n(C)c12 [Example 37, (S)-5,6-dimethyl-9-((1-methylpyrrolidin-2-yl)methoxy)-6H-pyrido[4,3-b]carbazole] | – | – | 2300
– | 760 | Cc1c2ccncc2cc2c3cc(OC[C@H]4CCCN4)ccc3n(C)c12 [Example 38, (R)-5,6-dimethyl-9-(pyrrolidin-2-ylmethoxy)-6H-pyrido[4,3-b]carbazole] | – | – | 740
– | 800 | Cc1c2ccncc2cc2c3cc(OC[C@@H]4CCCN4)ccc3n(C)c12 [Example 39, (S)-5,6-dimethyl-9-(pyrrolidin-2-ylmethoxy)-6H-pyrido[4,3-b]carbazole] | – | – | 1300

Structure (SMILES) | Ki ([1]; Table F) [nM] | Ki ([1]; Table D) [nM] | IC25 [2, 3] [nM] | IC25 [2] [nM] | IC25 [2, 4] [nM]
Cc1c2ccncc2cc2c1oc1ccc(OCCN3CCOCC3)cc12 [Compound 231, 5-methyl-9-(2-morpholinoethoxy)benzofuro[2,3-g]isoquinoline] | > 200000 | – | – | > 5000 | –
Cc1c2ccncc2cc2c3cc(OCCN4CCOCC4)ccc3n(C(C)C)c12 [Compound 235, 4-(2-((6-isopropyl-5-methyl-6H-pyrido[4,3-b]carbazol-9-yl)oxy)ethyl)morpholine] | > 200000 | – | – | > 5000 | –
Cc1c2ccncc2cc2c1oc1ccc(OCCN(C)C)cc12 [Compound 236, N,N-dimethyl-2-((5-methylbenzofuro[2,3-g]isoquinolin-9-yl)oxy)ethanamine] | 14000 | – | – | > 5000 | –
CN(C)CCOc1ccc2c(c1)c1cc3cnccc3cc1n2C [Compound 237, N,N-dimethyl-2-((6-methyl-6H-pyrido[4,3-b]carbazol-9-yl)oxy)ethanamine] | 3600 | – | – | 2000 | –
Cc1c2ccncc2cc2c3cc(OCCN4CCOCC4)ccc3n(CCC(C)C)c12 [Compound 248, 4-(2-((6-isopentyl-5-methyl-6H-pyrido[4,3-b]carbazol-9-yl)oxy)ethyl)morpholine] | > 200000 | – | – | > 5000 | –
Cc1c2ccncc2cc2c3cc(OCCN4CCCCC4)ccc3n(C)c12 [Example 31, 5,6-dimethyl-9-(2-(piperidin-1-yl)ethoxy)-6H-pyrido[4,3-b]carbazole] | – | 4500 | – | 2800 | –
CCN(CC)CCOc1ccc2c(c1)c1cc3cnccc3c(C)c1n2C [Example 33, 2-((5,6-dimethyl-6H-pyrido[4,3-b]carbazol-9-yl)oxy)-N,N-diethylethanamine] | – | 5200 | – | 3700 | –
